Measured values as given in patent US20050153381A1, “Immunocapture of mitochondrial protein complexes” (priority 2002, published 2005).

Assays:
[1] = target: T1, Complex V (Homo sapiens, UniProt P00846+P05496+P06576+P25705); experiment: Complex V activity dipstick; assay type: biochemical; details: normal fibroblast Complex V (FIG. 30)
T1 construct: tissue Analytical Biological Services, Inc; host or cells: human heart ventricle mitochondria (A10, A12); MRC5, Rho0-MRC5 and GM00028 fibroblasts (A12); normal and Rho0 human fibroblast mitochondria (A19)
Protocol: Mitochondria (human heart, human fibroblast or bovine heart) were solubilized at 5 mg/ml mitochondrial protein, 1% wt/vol lauryl maltoside, 100 mM NaCl, 25 mM HEPES pH 7.5, and the protease inhibitors pepstatin (0.5 μg/ml), leupeptin (0.5 μg/ml) and PMSF (1 mM). The samples were incubated at 4° C. for 30 minutes and the insoluble material removed by centrifugation at 16,000×g for 20 minutes. Solubilized mitochondria were diluted to the desired concentration in 150 mM NaCl, 50 mM Tris-HCl, pH 7.5 containing 2.5% bovine serum albumin as a blocking and stabilization agent.
After the entire sample wicked up into the nitrocellulose (approximately 15 minutes), the stick was transferred to a second well containing 50 μl of wash buffer (150 mM NaCl, 50 mM Tris-HCl, pH 7.5), which was allowed to wick up the stick (approximately 15 minutes). The absorbent pad was then removed and the entire dipstick incubated in a tube containing 3 ml wash buffer for approximately 15 minutes. The washed dipstick (with the immunocaptured OXPHOS complex of interest) was then transferred to the appropriate enzyme reaction buffer to reveal enzyme activity as described below. […]

[2] = system: human mitochondrial F1/F0 ATPase (Complex V); experiment: ATPase activity of immunocaptured F1/F0 ATPase, 96-well; assay type: biochemical
Protocol: Solubilization. Samples were thawed and placed in 25 mM HEPES pH 7.5 (to dissociate F1F0/IF1 interactions) or 10 mM […] (Anatrace) pH 6.5 (to retain F1F0/IF1 interactions), containing 0.4% (w/v) […], and the protease inhibitors leupeptin (0.5 μg/ml), pepstatin (0.5 μg/ml) and PMSF (1 mM). Mitochondria were solubilized at 5 mg/ml and whole cells were solubilized at 2×10^7 cells/ml. Samples were mixed well and then kept on ice for 30 minutes with occasional agitation. Insoluble material was then removed by centrifugation at 16,000×g for 20 minutes at 4° C.
Immunocapture. Assays were run in 96-well plates (Falcon Probind™) using 100 μl/well. […] To control for non-specific adsorption of ATPase, a non-specific mouse monoclonal antibody was used as a null capture mAb. Wells were then loaded with solubilized test samples diluted in TBS with 2.5% BSA, incubated for 2 hours at room temperature and then washed 4 times with TBS.
ATPase activity. ATPase reaction buffer (25 mM HEPES pH 7.5 or 10 mM MOPS pH 6.5, with 25 mM KCl, 5 mM MgCl2, 5 mM KCN and 2 mM ATP) was added at 100 μl/well and incubated for 3 hours at 37° C. The reaction was stopped and free Pi generated by ATP hydrolysis was detected essentially as described by Walker et al. (Meth. Enzymol., 260: 163-190, 1995) by addition of 0.5% ammonium molybendate in 0.7 M H2SO4 (42 μl/well) followed by 10% ascorbic acid (4 μl/well). After incubation for 30 minutes at room temperature to allow color development, absorbance was measured at 690 nm.
IF1 Stripping Conditions. IF1 was dissociated from previously immunocaptured IF1/F1F0 complexes by exposure to IF1 stripping buffer (30 mM Tris-sulfate pH 8, 250 mM KCl, 2 mM EDTA, 75 mM sucrose) for 30 minutes at 37° C. (Van Raaij et al., Biochem. 35: 15618-15625, 1996). The wells were then washed with either a pH 7.5 wash buffer (TBS) or a pH 6.5 wash buffer (10 mM MOPS pH 6.5, 150 mM NaCl and 1 mM MgCl2), and ATPase activity measured at either pH 7.5 or pH 6.5 as described above.
IF1 Addition Conditions. Recombinant human IF1 was obtained by PCR-based amplification of the appropriate gene from a human heart CDNA library (Clontech), cloning into pET15b (Novagen), transformation of E. coli and overexpression and purification of the His-tagged protein on a Ni column by standard protocols (Novagen). Isolated protein was diluted in pH 6.5 wash buffer (as described above) containing 1 mM ATP and incubated with previously immunocaptured F1F0. The wells were then washed with pH 6.5 wash buffer and ATPase activity measured at pH 6.5 as described above.

For CC[C@H]1/C=C/C=C/C[C@@H](C)[C@H](O)[C@@](C)(O)C(=O)[C@@H](C)[C@H](O)[C@@H](C)C(=O)[C@@H](C)[C@H](O)[C@@H](C)/C=C/C(=O)O[C@@H]2[C@H](C)[C@H](CC1)O[C@]1(CC[C@H](C)[C@H](C[C@@H](C)O)O1)[C@H]2C [oligomycin], which “effect on Complex V activity dipstick signal” value [1] is on record?
Its value is “reduced signal”.

And the “oligomycin sensitivity of F1/F0 ATPase immunocaptured from Rho0 cell mitochondria” value ([2]; Rho0 fibroblasts, 1.5 μg/ml oligomycin (FIG. 8))?
The value was “oligomycin insensitive”.

And the “oligomycin sensitivity of immunocaptured enzyme” value ([2]; cultured fibroblast extract, 1.5 μg/ml oligomycin (FIG. 7B))?
The value was “more than 90%”.

What about the “inhibition of ATPase activity of immunocaptured human F1/F0 ATPase” value ([2]; human heart mitochondria, 1.5 μg/ml oligomycin (FIG. 5)) of the same compound?
The value was “more than 90%”.

And the “inhibition of captured F1/F0 ATPase” value ([2]; mAb 12F4AD8AF8 directly adsorbed to the plate)?
The value was “could not be inhibited”.

What about the “inhibition of captured F1/F0 ATPase” value ([2]; mAb 12F4AD8AF8 oriented on a layer of goat-anti-mouse IgG) of the same compound?
The value was “completely inhibited”.
